From patent publication US6703388B2, “Nitrogen-containing tricyclic compounds and drugs containing the same” (Eisai Co., Ltd., priority 1996, dated 2004)
Like-named read-outs stand apart in the source and are kept apart here.

Legend:
human basophils = assay: Inhibition of mediator (histamine, peptide leukotriene) liberation from human basophils stimulated with mite antigen; assay type: cell-based; conditions: enzyme immunoassay
Method: 6 ml of 6% dextran (for separating leukocytes, having a high molecular weight) was added to 20 ml of heparinized blood. After stirring well, the resulting mixture was allowed to stand at 37° C. for 30 min and thus erythrocytes were precipitated. The upper layer was taken up and phosphate buffered saline (D-PBS) was added thereto followed by centrifugation at 185 g for 8 minutes to give a crude leukocyte fraction. These cells were subjected to hypotonic hematolysis and then suspended in D-PBS(+) containing 0.1%-BSA. The resulting suspension was used in the subsequent experiment as the leukocyte fraction containing basophils. 0.4 ml of this cell suspension was preliminarily heated to 37° C. for 5 min and then 0.05 ml of a specimen solution was added thereto followed by a pretreatment at 37° C. for 15 min. Next, 0.05 ml of a mite antigen solution was added thereto to induce an antigen-antibody reaction. After 10 min, the reaction was ceased by ice-cooling. Then the reaction mixture was centrifuged at 185 g for 10 min and histamine and peptide leukotrienes in the resulting supernatant were determined by using enzyme immunoassay kits. From the results of the assay, the activities of the acridone derivatives of inhibiting the liberation of histamine and peptide leukotriene were determined.

RBL-2H3 cells = assay: Inhibition of serotonin liberation from IgE-sensitized RBL-2H3 cells after antigen stimulation; assay type: cell-based, rat; conditions: Rattus norvegicus; [3H]-serotonin release, IgE-sensitized RBL-2H3 cells, antigen stimulation; read-out: IC50 (μM) in serotonin liberation from RBL-2H3 cells
Text: IgE-sensitized RBL-2H3 cells (i.e., a cell line originating in rat cells) release and produce not only histamine and serotonin but also cytokines such as TNF α and prostaglandins which are inflammatory mediators after stimulation with IgE sepecific antibody. In this experimental system, inhibitory effects on various mediators release were examined by using serotonin as an indication.
The cells were beforehand labeled with [^3H]-labeled serotonin and, at the same time, sensitized with the IgE antibody. After incubating with the compounds of the present invention, the cells were stimulated with the specific antigen. Then the inhibitory activity of each compound was calculated from the amount of the [^3H]-labeled serotonin thus liberated into the medium and the amount of [^3H]-labeled serotonin liberated when no compound of the present invention was added.

[1] = histamine, read-out: IC50 (μM) in mediator liberation from human basophils: histamine
[2] = peptide leukotriene, read-out: IC50 (μM) in mediator liberation from human basophils: leukotriene

Row | SMILES | IC50 (human basophils; [1]) [µM] | IC50 (human basophils; [2]) [µM] | IC50 (RBL-2H3 cells) [µM]
1 | Cc1ccc2c(c1C)N(CCCNCc1ccc(CO)o1)c1ccccc1[S+]2[O-] (centres unmarked) [Example 65] | 30 to 100 | 10 to 30 | 0.5
2 | COc1ccsc1CNCCCN1c2ccccc2[S+]([O-])c2ccc(C)c(C)c21 (centres unmarked) [Example 66] | < 3 | < 3 | 0.5
3 | COc1ccc(CNCCCN2c3ccccc3[S+]([O-])c3ccc(C)c(C)c32)s1 (centres unmarked) [Example 67] | 10 to 30 | 10 to 30 | 1
4 | Cc1ccc2c(c1C)N(CCCNCc1[nH]cnc1-c1ccccc1)c1ccccc1[S+]2[O-] (centres unmarked) [Example 69] | 10 | 3 to 10 | 1
5 | COc1csc(CNCCCN2c3ccccc3[S+]([O-])c3ccc(C)c(C)c32)c1 (centres unmarked) [Example 73] | 3 to 10 | 3 to 10 | 2
6 | Cc1ccc2c(c1C)N(CCCNCc1ccccc1)c1ccc(Cl)cc1[S+]2[O-] (centres unmarked) [Example 80] | 10 | 3 to 10 | 1
7 | COc1ccsc1CNCCCN1c2ccc(Cl)cc2[S+]([O-])c2ccc(C)c(C)c21 (centres unmarked) [Example 81] | 10 to 30 | 3 to 10 | 1
8 | Cc1ccc2c(c1C)N(CCCNCc1ccccc1)c1cccc(Cl)c1[S+]2[O-] (centres unmarked) [Example 82] | 3 to 10 | 10 to 30 | 2
9 | COc1ccsc1CNCCCN1c2cccc(Cl)c2[S+]([O-])c2ccc(C)c(C)c21 (centres unmarked) [Example 83] | 10 | 10 to 30 | 2
10 | Cc1ccc2c(c1C)N(CCCNCc1ccccc1)c1cc(Cl)ccc1[S+]2[O-] (centres unmarked) [Example 84] | < 3 | < 3 | 2
11 | COc1ccsc1CNCCCN1c2cc(Cl)ccc2[S+]([O-])c2ccc(C)c(C)c21 (centres unmarked) [Example 85] | 3 | 10 to 30 | 3
12 | Cc1ccc2c(c1C)N(CCCNCCc1ccccc1)c1ccc(F)cc1[S+]2[O-] (centres unmarked) [Example 86] | 10 to 30 | 10 | 1
13 | COc1ccsc1CNCCCN1c2ccc(F)cc2[S+]([O-])c2ccc(C)c(C)c21 (centres unmarked) [Example 87] | 3 to 10 | 3 to 10 | 3
14 | Cc1ccc2c(c1C)N(CCCNCc1ccccc1)c1cc(C#N)ccc1[S+]2[O-] (centres unmarked) [Example 90] | 30 to 100 | 10 to 30 | 3
15 | Cc1cc(C)c2c(c1C)N(CCCNCc1ccccc1)c1ccccc1[S+]2[O-] (centres unmarked) [Example 100] | 3 | 10 | 2
16 | Cc1ccc2c(c1C)N(CCCNC(C)c1ccccc1O)c1ccccc1[S+]2[O-] (centres unmarked) [Example 102] | 30 | 10 to 30 | 1
17 | Cc1ccc2c(c1C)N(CCCN1CCc3ccccc3C1)c1ccccc1[S+]2[O-] (centres unmarked) [Example 108] | 30 | 10 to 30 | 2
18 | Cc1ccc2c(c1C)N(CCCNCCOc1ccccc1)c1ccccc1[S+]2[O-] (centres unmarked) [Example 113] | 10 | < 10 | 3
19 | Cc1ccc2c(c1C)N(CCCN1CCN(Cc3ccccc3O)CC1)c1ccccc1[S+]2[O-] (centres unmarked) [Example 114] | 30 to 100 | 10 | 2
20 | Cc1ccc2c(c1C)N(Cc1cccc(CN3CCN(Cc4ccccc4)CC3)n1)c1ccccc1[S+]2[O-] (centres unmarked) [Example 122] | 10 to 30 | < 10 | 3
21 | Cc1ccc2c(c1C)N(CCCN(CCN(C)C)Cc1ccccc1)c1ccccc1[S+]2[O-] (centres unmarked) [Example 125] | < 10 | < 10 | 2
22 | Cc1ccc2c(c1C)N(CCCNC(CO)c1ccccc1)c1ccccc1[S+]2[O-] (centres unmarked) [Example 128] | – | 10 to 30 | 1
23 | CCOC(=O)CN(CCCN1c2ccccc2[S+]([O-])c2ccc(C)c(C)c21)Cc1ccccc1O (centres unmarked) [Example 134] | 3 | 3 | 3
24 | Cc1ccc2c(c1C)N(CCCN(Cc1ccccc1O)CC(O)CO)c1ccccc1[S+]2[O-] (centres unmarked) [Example 137] | 10 to 30 | 3 | 1
25 | Cc1ccc2c(c1C)N(CCCCNCc1ccccc1O)c1ccccc1[S+]2[O-] (centres unmarked) [Example 140] | 10 | 3 to 10 | 3
26 | Cc1ccc2c(c1C)N(CCNCc1ccccc1O)c1ccccc1[S+]2[O-] (centres unmarked) [Example 144] | 10 to 30 | 10 to 30 | 8

Row | SMILES | IC50 (human basophils; [1]) [µM] | IC50 (human basophils; [2]) [µM] | IC50 (RBL-2H3 cells) [µM]
27 | Cc1ccc2c(c1C)N(CCNCc1cccc(C)c1O)c1ccccc1[S+]2[O-] (centres unmarked) [Example 145] | 10 to 30 | < 10 | 6
28 | Cc1ccc2c(c1C)N(CCNCc1cc(Cl)cc(Cl)c1O)c1ccccc1[S+]2[O-] (centres unmarked) [Example 146] | < 10 | < 10 | 3
29 | Cc1ccc2c(c1C)N(CCNCc1cccc(C(C)C)c1O)c1ccccc1[S+]2[O-] (centres unmarked) [Example 147] | 10 | < 10 | 3
30 | Cc1ccc2c(c1C)N(CCNCc1c(O)cccc1O)c1ccccc1[S+]2[O-] (centres unmarked) [Example 150] | 10 to 30 | 3 to 10 | 1
31 | COCc1cccc(CNCCN2c3ccccc3[S+]([O-])c3ccc(C)c(C)c32)c1O (centres unmarked) [Example 151] | 10 to 30 | 3 to 10 | 2
32 | Cc1ccc2c(c1C)N(CCNCc1cccc(CO)c1O)c1ccccc1[S+]2[O-] (centres unmarked) [Example 152] | 3 to 10 | < 3 | 1
33 | COc1cccc(CNCCN2c3ccccc3[S+]([O-])c3ccc(C)c(C)c32)c1O (centres unmarked) [Example 154] | 10 to 30 | < 10 | 6
34 | COc1ccccc1CNCCN1c2ccccc2[S+]([O-])c2ccc(C)c(C)c21 (centres unmarked) [Example 155] | 30 to 100 | 10 to 30 | 4
35 | Cc1ccc2c(c1C)N(CCNCc1ccccc1CO)c1ccccc1[S+]2[O-] (centres unmarked) [Example 156] | 10 | 10 | 3
36 | Cc1ccc2c(c1C)N(CCNCc1ccccc1OCCO)c1ccccc1[S+]2[O-] (centres unmarked) [Example 157] | 30 to 100 | 10 to 30 | 1
37 | Cc1ccc2c(c1C)N(CCNCc1ncc[nH]1)c1ccccc1[S+]2[O-] (centres unmarked) [Example 162] | 30 to 100 | < 10 | 1
38 | Cc1ccc2c(c1C)N(CCNCc1cccc(C(F)(F)F)c1O)c1ccccc1[S+]2[O-] (centres unmarked) [Example 163] | 10 to 30 | 10 | 3
39 | Cc1ccc2c(c1C)N(CCCN(C)Cc1ccc(O)cc1)c1ccccc1[S+]2[O-] (centres unmarked) [Example 165] | 10 to 30 | 3 to 10 | 0.3
40 | Cc1ccc2c(c1C)N(CCCN(C)Cc1cccc(O)c1)c1ccccc1[S+]2[O-] (centres unmarked) [Example 166] | 10 to 30 | 3 to 10 | 0.5
41 | Cc1ccc2c(c1C)N(CCCN(C)Cc1cccc(C)c1O)c1ccccc1[S+]2[O-] (centres unmarked) [Example 168] | < 10 | < 10 | 2
42 | COc1cccc(CN(C)CCCN2c3ccccc3[S+]([O-])c3ccc(C)c(C)c32)c1O (centres unmarked) [Example 169] | 30 to 100 | 10 to 30 | 0.5
43 | COc1cccc(OC)c1CN(C)CCCN1c2ccccc2[S+]([O-])c2ccc(C)c(C)c21 (centres unmarked) [Example 170] | 10 to 30 | 3 | 0.5
44 | Cc1ccc2c(c1C)N(CCCN(C)Cc1cc(O)ccc1O)c1ccccc1[S+]2[O-] (centres unmarked) [Example 171] | 3 to 10 | 3 to 10 | 0.8
45 | Cc1ccc2c(c1C)N(CCCN(C)Cc1ccccc1OCCO)c1ccccc1[S+]2[O-] (centres unmarked) [Example 173] | 30 | 10 | 0.3
46 | Cc1ccc2c(c1C)N(CCCN(C)Cc1c(O)ccc(C)c1O)c1ccccc1[S+]2[O-] (centres unmarked) [Example 174] | 10 to 30 | 10 | 0.5
47 | COc1cc(C)c(O)c(CN(C)CCCN2c3ccccc3[S+]([O-])c3ccc(C)c(C)c32)c1O (centres unmarked) [Example 175] | 30 to 100 | 10 | 0.8
48 | COc1ccc(CN(C)CCCN2c3ccccc3[S+]([O-])c3ccc(C)c(C)c32)o1 (centres unmarked) [Example 176] | 30 to 100 | 10 to 30 | 2
49 | Cc1ccc2c(c1C)N(CCCN(C)Cc1ccc(CO)o1)c1ccccc1[S+]2[O-] (centres unmarked) [Example 177] | 10 | < 3 | 1
50 | COc1cccc(CN(C)CCN2c3ccccc3[S+]([O-])c3ccc(C)c(C)c32)c1O (centres unmarked) [Example 180] | 30 to 100 | 3 to 10 | 2
51 | Cc1ccc2c(c1C)N(CCN(C)Cc1cccc(C)c1O)c1ccccc1[S+]2[O-] (centres unmarked) [Example 181] | 10 to 30 | < 10 | 2
